# Reference: US7070965B1, “Small molecule anticancer compounds and related production process” (priority 1998, dated 2006)
# Tests used:
# [1] = system: SNU-423 human hepatocellular carcinoma cells; test: Western blot analysis of caspase target proteins Lamin B and RB; assay type: cell-based; details: 1% iso-C15 (60 μg/ml)
# Procedure: (§1) For Western blot assay, each cell pellet collected from 1% iso-C15 or control treated cultures was lysed in 150 μl lysis buffer with 0.5% NP-40, 0.5% deoxycholic acid and 1 mM PMSF. The cell lysates were mixed with equal volume 2× Laemmli buffer and boiled for 5 min before loaded into gel wells. Proteins were resolved in an 8% SDS-PAGE gel and transferred to nitrocellulose filter membrane. The filters were blocked with PBS-T (PBS with 0.1% Tween 20) containing 5% nonfat dry milk (Bio-Rad, Richmond, Calif.) for 1 hr and then incubated for 1 hr with proper dilution of one primary antibody in PBS-T containing 2% nonfat dry milk. The filters then were washed in PBS-T 5 min for 6 times and incubated with a 1:8000 dilution of HRP secondary antibody in PBS-T with 2% nonfat dry milk for 1 hr. After 6 washes in PBS-T, immune complexes were visualized on film using the ECL nonradioactive detection system (Amersham, Arlington Heights, Ill.). After detected with one primary antibody, the filter was striped with 0.1 mM Tris pH 7.5 and 0.05 mM β-metacapenanol at 50° C. for 30 min. The filters were washed in 300 ml PBS-T buffer for 10 min twice before blocking with PBS-T with 5% nonfat dry milk. The membranes were then reprobed with monoclonal mouse anti-human β-actin to determine the equal loading of protein for each well.
# (§2) The cleavages of Lamin B, a caspase target protein, in apoptotic SNU-423 human hepatocellular carcinoma cells and K562 human leukemia cells were shown in FIGS. 14 and 15, respectively. The cells were treated with 1% control solution and 1% iso-C15 for the length of time indicated. Cell lysates were separated by SDS-PAGE. Lamin B was detected by immunoblotting with a monoclonal antibody. […] The Western blot analysis of RB protein in SNU-423 and K562 cells were shown in FIGS. 16 and 17, respectively.
# [2] = system: K562 human leukemia cells; test: as above; assay type: cell-based; details: 1% iso-C15 (60 μg/ml)
# Procedure: as §1, §2
# [3] = system: HCT 116 human colon carcinoma; test: Cytotoxicity ID50/ID75/ID90, trypan blue dye exclusion; assay type: cell-based; details: 48 hours
# Procedure: (§3) All cells in adherent culture were initiated at 5×10^4 cells/well in 96-well microplates and treated immediately with iso-C15 at different concentrations (0, 1.5, 3.0, 6.0, 15.0, 30.0, and 60.0 μg/ml) diluted with medium. Both untreated and solvent (NaOH and Tween 80) treated cells served as controls. The treated cells were incubated for 48 hours at 37° C. After incubation, the supernatants were removed and the cells were trypsinized and collected prior to viability assessment by trypan blue dye exclusion.
# (§4) The ID50, ID75 and ID90 were determined in duplicate in every set of experiments, and each experiment was repeated three times under identical conditions. ID50, ID75 and ID90 were defined as the concentration of iso-C15 required to kill 50, 75 or 90%, respectively, of cells (compared with that in untreated cells) and computed using CalcuSyn for Windows software (Biosoft, Cambridge UK) based on Median Effect method by Dr. T. C. Chou.
# [4] = system: SNU-423 human hepatocellular carcinoma; test: as above; assay type: cell-based; details: 48 hours
# Procedure: as §3, §4
# [5] = system: H1688 human small cell lung carcinoma; test: as above; assay type: cell-based; details: 48 hours
# Procedure: as §3, §4
# [6] = system: DU-145 human prostate carcinoma; test: as above; assay type: cell-based; details: 48 hours
# Procedure: as §3, §4
# [7] = system: MCF-7 human breast adenocarcinoma; test: as above; assay type: cell-based; details: 48 hours
# Procedure: as §3, §4
# K562 leukemia cells = test: Apoptosis morphology, transmission electron microscope; assay type: cell-based, human; details: 60 μg/ml, 4 hours
# Procedure: Human cancer cell lines DU-145 (prostate cancer), K562 (leukemia), HCT116 (colon cancer), H1688 (lung cancer), SUN423 (hepatocarcinoma), MCF7 (breast cancer), CRL-1687 (pancreatic cancer), and SUN-1 (gastric cancer) were obtained from American Type Culture Collection (ATCC). 30 ml blood was collected from a health person and normal peripheral mononuclear cells were separated by Ficoll separation solution (Sigma). All cells were maintained in RPMI 1640, DMEM, or McCoy medium supplemented with 10% FCS, […] streptomycin and 100 u/ml penicillin. Normal human peripheral mononuclear cells, K562 and SUN-1 were suspended cells. After spinning at 1,500 RPM for 5 min, supernatants were discharged and cells were resuspended and expended in fresh medium. The other tumor cell lines were adherent cells and were dispersed with 0.05% trypsin/0.01% EDTA (Irvine Scientific, CA) for expansion. Cells were seeded in T75 flasks at 2×10^6 cells/flask in culture medium supplemented with 10% fetal bovine serum and incubated overnight at 37° C. with 5% CO2. The adherent cells attached to the plate were striped with disposable cell scrapers (Fisher Scientific) after treated either with 1% iso-C15, anteiso-C15 or control solution for 1, 2, 4, 8 and 24 hours and then combined with respective float cells. […]
# [8] = system: UVB radiation-induced skin tumor; test: Chemoprevention of UVB-induced skin cancer; assay type: in vivo, SKH-1 hairless mice; details: topical 200 μl of 10% iso-C15, 30 weeks, vs vehicle-treated group
# Procedure: 13-methyltetradecanoic acid (iso-C15) was prepared by dissolving in NaOH solution and then in 0.8% Tween 80 with pH 7.5, with resulting concentration 10%.
# Forty female SKH-1 hairless mice were divided into control and test groups, with 20 in each. The mice in both groups were treated topically once with 5.12 μg of DMBA dissolved in 200 μl acetone per mouse to achieve tumor initiation. One week later (day 8), animals in the test group were applied topically with 200 μl iso-C15 per application per mouse per day. The control group received 200 μl Tween 80 per application per mouse per day. Thirty minutes later, the animals in both groups were exposed to UVB (290–320 nm) radiation at a dose of 180 mJ/cm^2 per day to achieve UVB radiation-induced tumor promotion. The iso-C15 or vehicle treatments followed by UVB irradiation were performed twice a week up to 30 weeks from the start of UVB exposure. The animals were evaluated for tumor incidence at the end of 30 weeks.
structure (smiles),measurement,setting,value
"CC(C)CCCCCCCCCCCC(=O)O [iso-C15, 13-methyltetradecanoic acid]",Lamin B cleavage,[1],cleaved 45 kDa and 32 kDa products
same,RB hypophosphorylation and cleavage,[1],induced the change of hyperphosphorylated RB (pRB120/hyper) to hypophosphorylated form (pRB115/hypo)
same,Lamin B cleavage,[2],cleaved 45 kDa products
same,RB hypophosphorylation and cleavage,[2],induced the change of hyperphosphorylated RB (pRB120/hyper) to hypophosphorylated form (pRB115/hypo)
same,ID75,[3],67.96 ± 8.25 µg/mL
same,ID90,[3],108.65 ± 13.35 µg/mL
same,ID75,[4],70.46 ± 9.36 µg/mL
same,ID90,[4],120.77 ± 15.82 µg/mL
same,ID75,[5],35.03 ± 3.59 µg/mL
same,ID90,[5],61.37 ± 8.06 µg/mL
same,ID75,[6],40.43 ± 5.72 µg/mL
same,ID90,[6],81.87 ± 8.85 µg/mL
same,ID75,[7],15.99 ± 1.28 µg/mL
same,ID90,[7],25.49 ± 1.68 µg/mL
same,morphological changes indicative of apoptosis,K562 leukemia cells,exhibits typical apoptotic feature
same,reduction in tumor incidence,[8],40%
same,reduction of tumor volume,[8],90%
